Assay results as given in PubChem BioAssay (NCI).
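Results reflect a 48-hour exposure of cells in 96-well plates to compound at five concentrations. The concentration for 50% growth inhibition is given as GI50. TGI marks complete inhibition of growth.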

Tests used:
Assay in all cases: NCI-60 cell line screen, 48 h
TK-10 renal = tested on: TK-10 renal
HT29 colon = tested on: HT29 colon
MDA-MB-231 breast = tested on: MDA-MB-231 breast
SK-MEL-28 melanoma = tested on: SK-MEL-28 melanoma
RPMI-8226 leukemia = tested on: RPMI-8226 leukemia
CCRF-CEM leukemia = tested on: CCRF-CEM leukemia
A549 NSCLC = tested on: A549 NSCLC
HCC-2998 colon = tested on: HCC-2998 colon
NCI-H23 lung = tested on: NCI-H23 lung
SR leukemia = tested on: SR leukemia
HOP-92 NSCLC = tested on: HOP-92 NSCLC
SNB-75 CNS = tested on: SNB-75 CNS
NCI-H226 lung = tested on: NCI-H226 lung
M14 melanoma = tested on: M14 melanoma
NCI-H460 lung = tested on: NCI-H460 lung
LOX IMVI melanoma = tested on: LOX IMVI melanoma
UACC-62 melanoma = tested on: UACC-62 melanoma
BT-549 breast = tested on: BT-549 breast
MCF7 breast = tested on: MCF7 breast
HOP-62 NSCLC = tested on: HOP-62 NSCLC
DU-145 prostate = tested on: DU-145 prostate
SK-MEL-5 melanoma = tested on: SK-MEL-5 melanoma
OVCAR-4 ovarian = tested on: OVCAR-4 ovarian
U251 CNS = tested on: U251 CNS
SW-620 colon = tested on: SW-620 colon
UO-31 renal = tested on: UO-31 renal
RXF 393 renal = tested on: RXF 393 renal
SN12C renal = tested on: SN12C renal
MDA-MB-435 = tested on: MDA-MB-435
IGROV1 ovarian = tested on: IGROV1 ovarian
SF-539 CNS = tested on: SF-539 CNS
ACHN renal = tested on: ACHN renal
A498 renal = tested on: A498 renal
HL-60(TB) leukemia = tested on: HL-60(TB) leukemia
HS 578T breast = tested on: HS 578T breast
CAKI-1 renal = tested on: CAKI-1 renal
UACC-257 melanoma = tested on: UACC-257 melanoma
MALME-3M melanoma = tested on: MALME-3M melanoma
SK-OV-3 ovarian = tested on: SK-OV-3 ovarian
SF-295 CNS = tested on: SF-295 CNS
SF-268 CNS = tested on: SF-268 CNS
KM12 colon = tested on: KM12 colon
PC-3 prostate = tested on: PC-3 prostate
SNB-19 CNS = tested on: SNB-19 CNS
T-47D breast = tested on: T-47D breast
OVCAR-5 ovarian = tested on: OVCAR-5 ovarian
786-0 renal = tested on: 786-0 renal
NCI/ADR-RES ovarian = tested on: NCI/ADR-RES ovarian
MOLT-4 leukemia = tested on: MOLT-4 leukemia
EKVX NSCLC = tested on: EKVX NSCLC

Compound `Cc1ccc(-c2csc(N/N=C/c3nc4ccccc4n3C3CC3)n2)cc1` has a GI50 (TK-10 renal) of 1.68 µM, a TGI (TK-10 renal) of 3.05 µM and a GI50 (HT29 colon) of 1.84 µM. It also gave a TGI (HT29 colon) of 3.48 µM, a GI50 (MDA-MB-231 breast) of 10.6 µM and a TGI (MDA-MB-231 breast) of 41.4 µM. The GI50 (SK-MEL-28 melanoma) was 1.82 µM, the TGI (SK-MEL-28 melanoma) was 3.35 µM and the GI50 (RPMI-8226 leukemia) was 1.95 µM. For the same compound, the TGI (RPMI-8226 leukemia) was 4.71 µM, the GI50 (CCRF-CEM leukemia) was 2.15 µM and the TGI (CCRF-CEM leukemia) was 5.39 µM. It also gave a GI50 (A549 NSCLC) of 5.55 µM, a TGI (A549 NSCLC) of 26.9 µM and a GI50 (HCC-2998 colon) of 16.2 µM. For the same compound, the TGI (HCC-2998 colon) was 46.5 µM, the GI50 (NCI-H23 lung) was 20 µM and the TGI (NCI-H23 lung) was 61 µM. For the same compound, the GI50 (SR leukemia) was 2.02 µM, the TGI (SR leukemia) was 5.63 µM and the GI50 (HOP-92 NSCLC) was 1.65 µM. For the same compound, the TGI (HOP-92 NSCLC) was 3.13 µM, the GI50 (SNB-75 CNS) was 1.86 µM and the TGI (SNB-75 CNS) was 3.9 µM. It also gave a GI50 (NCI-H226 lung) of 8.34 µM, a TGI (NCI-H226 lung) of over 100 µM and a GI50 (M14 melanoma) of 1.75 µM. For the same compound, the TGI (M14 melanoma) was 3.43 µM, the GI50 (NCI-H460 lung) was 7.72 µM and the TGI (NCI-H460 lung) was 27.1 µM. The GI50 (LOX IMVI melanoma) was 4.61 µM, the TGI (LOX IMVI melanoma) was 36.4 µM and the GI50 (UACC-62 melanoma) was 16.5 µM. For the same compound, the TGI (UACC-62 melanoma) was 31 µM, the GI50 (BT-549 breast) was 4.47 µM and the TGI (BT-549 breast) was 17.6 µM. The GI50 (MCF7 breast) was 1.92 µM, the TGI (MCF7 breast) was 4.39 µM and the GI50 (HOP-62 NSCLC) was 3.67 µM. The TGI (HOP-62 NSCLC) was 49.7 µM, the GI50 (DU-145 prostate) was 1.83 µM and the TGI (DU-145 prostate) was 3.42 µM. The GI50 (SK-MEL-5 melanoma) was 2.04 µM, the TGI (SK-MEL-5 melanoma) was 11.4 µM and the GI50 (OVCAR-4 ovarian) was 1.74 µM. It also gave a TGI (OVCAR-4 ovarian) of 3.33 µM, a GI50 (U251 CNS) of 2.72 µM and a TGI (U251 CNS) of 8.33 µM. The GI50 (SW-620 colon) was 1.62 µM, the TGI (SW-620 colon) was 3.29 µM and the GI50 (UO-31 renal) was 1.6 µM. The TGI (UO-31 renal) was 3.05 µM, the GI50 (RXF 393 renal) was 1.95 µM and the TGI (RXF 393 renal) was 4.46 µM. For the same compound, the GI50 (SN12C renal) was 8.55 µM, the TGI (SN12C renal) was 31.5 µM and the GI50 (MDA-MB-435) was 10.5 µM. It also gave a TGI (MDA-MB-435) of 23.6 µM, a GI50 (IGROV1 ovarian) of 5.73 µM and a TGI (IGROV1 ovarian) of 35.9 µM. It also gave a GI50 (SF-539 CNS) of 12.2 µM, a TGI (SF-539 CNS) of 27.5 µM and a GI50 (ACHN renal) of 1.58 µM. For the same compound, the TGI (ACHN renal) was 3.08 µM, the GI50 (A498 renal) was 14.4 µM and the TGI (A498 renal) was 33.6 µM. It also gave a GI50 (HL-60(TB) leukemia) of 1.86 µM, a TGI (HL-60(TB) leukemia) of 4.38 µM and a GI50 (HS 578T breast) of 11.7 µM. It also gave a TGI (HS 578T breast) of 57 µM, a GI50 (CAKI-1 renal) of 1.52 µM and a TGI (CAKI-1 renal) of 3.07 µM. For the same compound, the GI50 (UACC-257 melanoma) was 1.51 µM, the TGI (UACC-257 melanoma) was 2.93 µM and the GI50 (MALME-3M melanoma) was 1.99 µM. For the same compound, the TGI (MALME-3M melanoma) was 3.84 µM, the GI50 (SK-OV-3 ovarian) was 8.53 µM and the TGI (SK-OV-3 ovarian) was over 100 µM. The GI50 (SF-295 CNS) was 45.5 µM, the TGI (SF-295 CNS) was over 100 µM and the GI50 (SF-268 CNS) was 4.21 µM. The TGI (SF-268 CNS) was 21.1 µM, the GI50 (KM12 colon) was 16.3 µM and the TGI (KM12 colon) was 59.8 µM. It also gave a GI50 (PC-3 prostate) of 12 µM, a TGI (PC-3 prostate) of 25.7 µM and a GI50 (SNB-19 CNS) of 5.19 µM. The TGI (SNB-19 CNS) was 79.4 µM, the GI50 (T-47D breast) was 2.14 µM and the TGI (T-47D breast) was 5.27 µM. The GI50 (OVCAR-5 ovarian) was 17.6 µM, the TGI (OVCAR-5 ovarian) was 39.5 µM and the GI50 (786-0 renal) was 4.12 µM. The TGI (786-0 renal) was 16 µM, the GI50 (NCI/ADR-RES ovarian) was 13.6 µM and the TGI (NCI/ADR-RES ovarian) was over 100 µM. For the same compound, the GI50 (MOLT-4 leukemia) was 2.18 µM, the TGI (MOLT-4 leukemia) was 4.75 µM and the GI50 (EKVX NSCLC) was 21 µM. The TGI (EKVX NSCLC) was 55.9 µM.
